Measurements reported in article PMC8341910, “Structural and biophysical insights into the mode of covalent binding of rationally designed potent BMX inhibitors” (RSC Chemical Biology, 2020).
In brackets after ≈: the same amount, converted by molar mass. Read-outs that look alike come from different tables or passages of the source.

How the values were obtained:
[1] = Dynamic light scattering, colloidal aggregation; assay type: physicochemical; conditions: measured at 10 µM, 1 µM and 100 nM, 25 °C, read-out: DLS maximum soluble concentration at which no aggregates are observed
Description: In addition, we measured particle sizes by using dynamic light scattering (DLS).
DLS is measured at 10 µM, 1µM and 100 nM. The maximum soluble
concentration – at which no aggregates are observed - is indicated and the colour code indicates
Dynamic Light Scattering:
Dynamic light scattering (Zetasizer Nano S, Malvern, UK) was used to determine compound colloidal aggregation. […] A 10 mM stock solution of
test compounds was prepared in DMSO, following dilution to deionized and filtered water to
obtain an analyte solution of 10 μM (0.1% DMSO). Colloidal aggregation was measured
through sequential dilutions at 10 μM, 1 μM and 0.1 μM.

[2] = target: T1, recombinant human BMX protein (hBMX) (Homo sapiens, UniProt P51813); experiment: Differential scanning fluorimetry (DSF); assay type: binding; conditions: 100 μM compound; for ΔTm / ΔTm at 100 µM: versus apo-BMX; for Average Tm of BMX with compound: apo-BMX Tm 51.8-52.2 °C; for ΔTm at 100 µM: read-out: ΔTm
T1 construct: Crystallization, data collection, and structure determination of BMX catalytic domain in; made in house; host or cells: Sf-9 insect cells
Description: We further characterized the binding interaction between JS24–JS27 and BMX by using differential scanning fluorimetry (DSF) and surface plasmon resonance (SPR). Purified recombinant human BMX protein (hBMX) was first subjected to thermal scanning in the absence and presence of JS24–JS27, and the respective protein melting temperature (Tm) calculated.
Differential Scanning Fluorimetry:
DSF was performed in MicroAmp™ EnduraPlate™ Optical 96 -Well Clear Reaction Plates
with Barcode (Applied Biosystems, Life Technologies, California, USA) using a QuantStudio
7 Flex Real-Time PCR System (Applied Biosystems). Pre-incubation of the protein with the
compound for 2 hours at 4 °C was required prior to DSF experiments. The final reaction mixture
(20 μL of total volume) contained 4 μg of His6-BMX, 4-fold of Protein Thermal Shift™ Dye
(Applied Biosystems) diluted in protein buffer solution, and 100 μM of compound. The
temperatures were obtained by taking the midpoint of each transition.

[3] = target: T2, BMX (Homo sapiens, UniProt P51813); experiment: BMX biochemical activity assay (HTRF, phosphorylation of a biotinylated peptide); conditions: for IC50: read-out: BMX IC50
T2 sequence (P51813 1-675): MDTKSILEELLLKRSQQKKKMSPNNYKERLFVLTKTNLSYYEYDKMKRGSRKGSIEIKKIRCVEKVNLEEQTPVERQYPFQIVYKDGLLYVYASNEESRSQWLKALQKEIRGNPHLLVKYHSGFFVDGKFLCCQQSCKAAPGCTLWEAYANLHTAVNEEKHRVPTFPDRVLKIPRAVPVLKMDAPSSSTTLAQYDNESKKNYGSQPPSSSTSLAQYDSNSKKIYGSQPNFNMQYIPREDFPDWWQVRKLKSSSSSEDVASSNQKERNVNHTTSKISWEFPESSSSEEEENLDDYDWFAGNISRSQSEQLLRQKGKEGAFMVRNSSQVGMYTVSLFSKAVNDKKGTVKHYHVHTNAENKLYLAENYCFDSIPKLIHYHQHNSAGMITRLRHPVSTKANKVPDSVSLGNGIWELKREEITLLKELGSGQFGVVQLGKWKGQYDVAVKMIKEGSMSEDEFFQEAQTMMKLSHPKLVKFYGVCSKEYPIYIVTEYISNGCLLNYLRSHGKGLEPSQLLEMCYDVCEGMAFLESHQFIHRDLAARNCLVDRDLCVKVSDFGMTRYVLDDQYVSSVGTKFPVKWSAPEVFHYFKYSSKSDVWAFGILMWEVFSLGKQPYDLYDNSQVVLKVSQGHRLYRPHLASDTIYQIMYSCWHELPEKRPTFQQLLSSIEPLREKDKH

[4] = pH 6.8
Excerpt: (§1) For assessment of drug permeability, we relied on parallel artificial membrane permeability assay (PAMPA) performed at Pion Inc. with the PAMPA Evolution™ instrument (Table S1, ESI ^†).
(§2) methods (ESOL model1 and Ali et al.2) PAMPA: Pe is effective permeability (x10-6 cm/sec)
(§3) measured directly from assay at pH 6.8 and %R is membrane retention.
(§4) as the average of quadruplicates. Und label refers to compounds with extremely low solubility
(§5) for which UV limits were below the detection limits therefore considered undetected.
(§6) Compounds were labelled as high permeability (green), medium permeability (orange) or low
(§7) Artificial Membrane Permeability (PAMPA):
(§8) The PAMPA Evolution™ instrument was used to determine permeability, at Pion Inc. In
(§9) PAMPA, a sandwich is formed such that each composite well is divided into two chambers,
(§10) measured at pH 6.8 in the donor compartment using low-binding, low UV Prisma buffer. The
(§11) drug-free acceptor compartment was filled with acceptor sink buffer containing a scavenger at
(§12) the start of the test. The proprietary scavenger mimics serum proteins and blood circulation,
(§13) thus creating sink conditions. Aqueous solutions of studied compounds are prepared by diluting
(§14) and thoroughly mixing 3 µL of DMSO stock in 600 µL of Prisma HT buffer. Final
(§15) concentration of organic solvent (DMSO) in aqueous buffer is ≤ 0.5% (v/v). The reference
(§16) solution is identical to the donor at time zero, so that any surface adsorption effects from the
(§17) plastic ware is compensated. The PAMPA sandwich was assembled and allowed to incubate
(§18) for ~15 hours. The solutions in the donor compartment were un-stirred within duration of the
(§19) experiment. Thus, the thickness of the aqueous boundary layer expected to be about 1000 µm.
(§20) The sandwich was then separated, and both the donor and receiver compartments were assayed
(§21) for the amount of drug present by comparison with the UV spectrum obtained from reference

[5] = in vitro; conditions: PAMPA, pH 6.8, PAMPA/Pe effective permeability
Excerpt: as §1, §2, §3, §4, §5, §6, §7, §8, §9, §10, §11, §12, §13, §14, §15, §16, §17, §18, §19, §20, §21

[6] = Experiment 1 of Fig. S3, control JS9A (in-house BMX-IN-1)
[7] = relative to the control of the same set of experiments
[8] = Experiment 3 of Fig. S3, control commercial BMX-IN-1
[9] = Experiment 2 of Fig. S3, control commercial BMX-IN-1
[10] = deionized and filtered water (0.1% DMSO), kinetic from dmso stock

| Compound | solubility ([1]; water) | ΔTm [2] | Average Tm of BMX with compound [2] | IC50 [3, 6] | BMX potency gain (fold) against BMX-IN-1 [3, 7] | PAMPA/%R membrane retention [4] | PAMPA/Pe effective permeability [4] | IC50 [3, 8] | IC50 [3, 9] | Papp [5] | solubility [1, 10] | ΔTm at 100 µM [2] | BMX potency loss (fold) against control BMX-IN-1 [3, 7] |
| --- | --- | --- | --- | --- | --- | --- | --- | --- | --- | --- | --- | --- | --- |
| C=CC(=O)Nc1cccc(-n2c(=O)ccc3cnc4ccc(-c5ccc(NS(C)(=O)=O)cc5)cc4c32)c1 [JS9D] | 1 µM (≈ 0.511 µg/mL) | 7.74±0.01 °C | 59.66±0.01 °C | 0.059 ± 0.005 µM | 6 fold | 48±3% | 11±1 x10-6 cm/sec |  |  |  |  |  |  |
| C=CC(=O)Nc1cc(-n2c(=O)ccc3cnc4ccc(-c5cccc(NS(C)(=O)=O)c5)cc4c32)ccc1C [JS15] | 1 µM (≈ 0.525 µg/mL) | 8.79±0.28 °C | 60.72±0.28 °C |  |  | 17±24% | 30±18 x10-6 cm/sec | 0.119 ± 0.0114 µM |  |  |  |  |  |
| COC(=O)C=CCNc1cc(-n2c(=O)ccc3cnc4ccc(-c5ccc(NS(C)(=O)=O)cc5)cc4c32)ccc1C (mixture of isomers) [JS13] | 0.1 µM | 0.52±0.06 °C | 52.44±0.06 °C |  |  | 30±16% | 45±9 x10-6 cm/sec |  |  |  |  |  |  |
| C=CC(=O)Nc1cc(-n2c(=O)ccc3cnc4ccc(-c5ccncc5)cc4c32)ccc1C [JS17] |  | 7.62±0.01 °C | 59.55±0.01 °C |  |  | 10±3% | 24±1 x10-6 cm/sec |  | 0.045 ± 0.01 µM |  |  |  |  |
| C=CC(=O)Nc1cc(-n2c(=O)ccc3cnc4ccc(N5CCN(S(C)(=O)=O)CC5)cc4c32)ccc1C [JS22] |  | 8.79±0.21 °C | 60.72±0.21 °C |  |  | 19±6% | 18±1 x10-6 cm/sec | 0.0938 ± 0.00087 µM |  |  |  |  |  |
| C=CC(=O)Nc1cc(C)cc(-n2c(=O)ccc3cnc4ccc(-c5ccc(NS(C)(=O)=O)cc5)cc4c32)c1 [JS9B, N-(3-methyl-5-(9-(4-(methylsulfonamido)phenyl)-2-oxobenzo[h][1,6]naphthyridin-1(2H)-yl)phenyl)acrylamide] |  |  | 59.68±0.11 °C | 0.24 ± 0.025 µM |  | 35±7% |  |  |  | 7.1 ± 2.3 ×10⁻⁶ cm/s | < 0.1 µM | 7.75 ± 0.11 °C |  |
| C=CC(=O)Nc1cc(-n2c(=O)ccc3cnc4ccc(N5CCC(N(C)C)CC5)cc4c32)ccc1C [JS23] |  | 8.66±0.11 °C | 60.59±0.11 °C |  |  | 39±5% | 2.2±0.2 x10-6 cm/sec |  | 0.041 ± 0.006 µM |  |  |  |  |
| C=CC(=O)Nc1cc(-n2c(=O)ccc3cnc4ccc(-c5ccc(NS(C)(=O)=O)cc5)cc4c32)ccc1OC [JS9E] | 1 µM (≈ 0.541 µg/mL) | 6.05±0.01 °C | 57.97±0.01 °C | 1.3 ± 0.206 µM |  | 55±8% | 40±5 x10-6 cm/sec |  |  |  |  |  | 4 fold |
| C=CC(=O)Nc1cc(-n2c(=O)ccc3cnc4ccc(-c5ccc(C(F)(F)F)nc5)cc4c32)ccc1C [JS19] | < 0.1 µM |  | 58.64±0.13 °C |  |  |  | Und |  | 0.47 ± 0.179 µM |  |  |  |  |
| C=CC(=O)Nc1ccc(C)c(-n2c(=O)ccc3cnc4ccc(-c5ccc(NS(C)(=O)=O)cc5)cc4c32)c1 [JS9C, N-(4-methyl-3-(9-(4-(methylsulfonamido)phenyl)-2-oxobenzo[h][1,6]naphthyridin-1(2H)-yl)phenyl)acrylamide] |  |  | 54.12±0.06 °C | 6.9 ± 2.92 µM |  | 51±6% |  |  |  | 11 ± 1 ×10⁻⁶ cm/s | 1 µM (≈ 0.525 µg/mL) | 2.2 ± 0.06 °C | abolishes target inhibition |
| Cc1ccc(-n2c(=O)ccc3cnc4ccc(-c5ccc(NS(C)(=O)=O)cc5)cc4c32)cc1NCC=CC#N (mixture of isomers) [JS12] | 0.1 µM | 0.13±0.06 °C | 52.05±0.06 °C |  |  | 39±2% | 45±3 x10-6 cm/sec |  |  |  |  |  |  |
| C=CC(=O)Nc1cc(-n2c(=O)ccc3cnc4ccc(N5CCCCC5)cc4c32)ccc1C [JS20] |  | 7.36±0.11 °C | 59.29±0.11 °C |  |  | 18±1% | 30±2 x10-6 cm/sec |  | 0.042 ± 0.013 µM |  |  |  |  |
| C=CC(=O)Nc1cc(-n2c(=O)ccc3cnc4ccc(-c5ccc(C#N)nc5)cc4c32)ccc1C [JS18] | < 0.1 µM | 7.49±0.11 °C | 59.42±0.11 °C |  |  | 18±5% | 24±2 x10-6 cm/sec |  | 0.14 ± 0.012 µM |  |  |  |  |
| C=CC(=O)Nc1cc(-n2c(=O)ccc3cnc4ccc(N5CCOCC5)cc4c32)ccc1C [JS21] |  | 8.57±0.06 °C | 60.50±0.06 °C |  |  | 19±3% | 22±1 x10-6 cm/sec |  | 0.043 ± 0.005 µM |  |  |  |  |
| C=CC(=O)Nc1cc(-n2c(=O)ccc3cnc4ccc(-c5ccc(NS(=O)(=O)CCCC)cc5)cc4c32)ccc1C [JS14] | 0.1 µM (≈ 0.0567 µg/mL) | 7.61±0.11 °C | 59.53±0.11 °C |  |  |  | Und |  | 0.89 ± 0.027 µM |  |  |  |  |
| C=CC(=O)Nc1cc(-n2c(=O)ccc3cnc4ccc(Br)cc4c32)ccc1C [JS29] |  |  |  |  |  | 1±1% | 32±4 x10-6 cm/sec |  | 0.044 ± 0.002 µM |  |  |  |  |
